Tests used:
FLAG-KDM4A1-1,064 = molecular target: T1, FLAG-KDM4A1-1,064 (Homo sapiens, UniProt O75164); assay: CETSA, FLAG-KDM4A in U2OS cells; format: cell-based; settings: 0.5 μM, 20 h dosing, DMSO 47 °C
T1 construct: expressed in transfected cells; host or cells: U2OS
T1 sequence (O75164 1-1064): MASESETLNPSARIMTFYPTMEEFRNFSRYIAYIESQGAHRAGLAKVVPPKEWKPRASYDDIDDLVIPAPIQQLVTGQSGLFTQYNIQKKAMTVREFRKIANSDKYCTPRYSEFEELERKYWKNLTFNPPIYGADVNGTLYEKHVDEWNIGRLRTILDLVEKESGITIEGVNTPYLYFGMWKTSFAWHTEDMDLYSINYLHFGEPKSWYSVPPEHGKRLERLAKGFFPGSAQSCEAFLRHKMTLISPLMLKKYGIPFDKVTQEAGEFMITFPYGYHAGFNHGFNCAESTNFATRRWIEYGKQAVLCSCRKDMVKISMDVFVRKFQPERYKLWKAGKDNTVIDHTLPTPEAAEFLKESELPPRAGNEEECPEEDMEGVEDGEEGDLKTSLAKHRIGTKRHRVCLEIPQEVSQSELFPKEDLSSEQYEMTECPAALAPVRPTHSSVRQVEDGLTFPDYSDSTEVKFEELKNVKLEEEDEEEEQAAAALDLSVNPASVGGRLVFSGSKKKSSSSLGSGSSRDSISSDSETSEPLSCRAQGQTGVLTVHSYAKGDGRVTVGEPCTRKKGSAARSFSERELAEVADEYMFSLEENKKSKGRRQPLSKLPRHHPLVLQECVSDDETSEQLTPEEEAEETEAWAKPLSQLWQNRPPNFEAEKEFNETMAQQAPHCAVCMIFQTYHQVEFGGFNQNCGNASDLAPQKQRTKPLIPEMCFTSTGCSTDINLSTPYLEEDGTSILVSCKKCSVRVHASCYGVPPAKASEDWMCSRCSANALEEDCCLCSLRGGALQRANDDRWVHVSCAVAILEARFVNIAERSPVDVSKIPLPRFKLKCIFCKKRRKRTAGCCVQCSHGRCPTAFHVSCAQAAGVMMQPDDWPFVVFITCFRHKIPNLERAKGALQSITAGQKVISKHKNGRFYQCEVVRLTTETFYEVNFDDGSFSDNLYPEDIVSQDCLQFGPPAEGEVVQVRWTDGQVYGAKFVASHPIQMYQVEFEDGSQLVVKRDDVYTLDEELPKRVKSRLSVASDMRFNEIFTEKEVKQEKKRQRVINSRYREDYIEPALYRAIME
Experimental: Control cells were dosed only with DMSO.

FLAG-KDM4E = molecular target: T2, FLAG-KDM4E (Homo sapiens, UniProt B2RXH2); assay: CETSA, FLAG-KDM4E in U2OS cells; format: cell-based; settings: 0.5 µM
T2 construct: expressed in transfected cells; host or cells: U2OS
T2 sequence (B2RXH2 1-506): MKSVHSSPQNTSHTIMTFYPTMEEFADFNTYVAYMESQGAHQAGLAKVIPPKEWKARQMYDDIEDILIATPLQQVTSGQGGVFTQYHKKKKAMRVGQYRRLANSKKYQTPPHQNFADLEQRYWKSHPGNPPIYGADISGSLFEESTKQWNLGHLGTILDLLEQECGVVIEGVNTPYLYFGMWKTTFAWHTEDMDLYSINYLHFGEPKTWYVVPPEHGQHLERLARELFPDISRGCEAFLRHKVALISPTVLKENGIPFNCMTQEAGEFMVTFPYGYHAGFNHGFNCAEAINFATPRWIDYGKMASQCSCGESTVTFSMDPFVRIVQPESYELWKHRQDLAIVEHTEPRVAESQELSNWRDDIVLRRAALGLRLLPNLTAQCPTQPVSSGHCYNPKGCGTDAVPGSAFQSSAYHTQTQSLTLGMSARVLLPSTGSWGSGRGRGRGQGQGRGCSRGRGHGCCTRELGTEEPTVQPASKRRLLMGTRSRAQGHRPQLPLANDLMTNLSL
Experimental: For CETSA melting curve experiments, 80% confluent U2OS cells in a 75 cm^2 flask were transfected with a plasmid encoding full-length Flag-tagged KDM4A1–1,064 (ref. [15]) or KDM4E1–506 (ref. [20]) using Lipofectamine 2000 (Thermo Scientific) and incubated for 4 h. The cells were washed with PBS buffer and media replaced with fresh DMEM with 10% FBS, supplemented with cyclic peptides in DMSO (0.1% DMSO final). Cell dosing was carried out for 20 h at 37 °C. Control cells were dosed only with DMSO. The cells were trypsinized and washed thrice with PBS, by centrifugation (300 g, 3 min, 4 °C). Cells were re-suspended in PBS supplemented with Complete Protease inhibitor cocktail (Sigma) and divided into 8–10 aliquots (100 μl) containing equal cell numbers in PCR tubes. For ITDRF CETSA experiments, approximately 6 × 10^6 cells were seeded evenly into nine 25 cm^2 flask and adhered before transfection. After 4 h of incubation, the cells were washed with PBS buffer and the media replaced with fresh DMEM with 10% FBS supplemented with cyclic peptides at a final concentration between 0 and 4,000 nM (0.1% DMSO final). Cells were trypsinized and washed thrice with PBS using centrifugation (300 g, 3 min, 4 °C). Cells were re-suspended in PBS supplemented with protease inhibitor cocktail (Sigma), aliquots (100 μl) containing equal cell numbers in PCR tubes were prepared. […] For ITDRF, tubes were incubated at approximately the Tm of the proteins of interest as determined by CETSA melting curve experiments, for example, 55 °C (Tm for actin) for 3 min, followed by room temperature for 3 min. […]
The samples (supernatant) were run on SDS–PAGE (NuPage Novex Bis-Tris 4–12% polyacrylamide gels with NuPAGE MES SDS running buffer (Thermo Scientific)) and transferred onto nitrocellulose membranes using either the iBlot blotting system. FLAG-KDM4A levels were determined by immunoblotting using a monoclonal mouse anti-FLAG primary antibody (F1804, Sigma), at a dilution of 1: 1,000 in PBS-T buffer containing Seablock Reagent Salmon Plasma (2% v/v, Calbiochem). […]

actin = settings: U2OS cells, 0.5 μM; same for treated and untreated cells
Experimental: For CETSA melting curve experiments, 80% confluent U2OS cells in a 75 cm^2 flask were transfected with a plasmid encoding full-length Flag-tagged KDM4A1–1,064 (ref. [15]) or KDM4E1–506 (ref. [20]) using Lipofectamine 2000 (Thermo Scientific) and incubated for 4 h. The cells were washed with PBS buffer and media replaced with fresh DMEM with 10% FBS, supplemented with cyclic peptides in DMSO (0.1% DMSO final). Cell dosing was carried out for 20 h at 37 °C. Control cells were dosed only with DMSO. The cells were trypsinized and washed thrice with PBS, by centrifugation (300 g, 3 min, 4 °C). Cells were re-suspended in PBS supplemented with Complete Protease inhibitor cocktail (Sigma) and divided into 8–10 aliquots (100 μl) containing equal cell numbers in PCR tubes. […]
The samples (supernatant) were run on SDS–PAGE (NuPage Novex Bis-Tris 4–12% polyacrylamide gels with NuPAGE MES SDS running buffer (Thermo Scientific)) and transferred onto nitrocellulose membranes using either the iBlot blotting system. FLAG-KDM4A levels were determined by immunoblotting using a monoclonal mouse anti-FLAG primary antibody (F1804, Sigma), at a dilution of 1: 1,000 in PBS-T buffer containing Seablock Reagent Salmon Plasma (2% v/v, Calbiochem). […] Western blotting band intensities were quantified using Image Studio Ver. […]

For DYVYNTRSGWRWYZC [T13Z], which “CETSA melting temperature (Tm) of FLAG-KDM4A” value (FLAG-KDM4A1-1,064) is on record?
The value was 59 °C.

What about the “CETSA stabilization / Tm shift of FLAG-KDM4E” value (FLAG-KDM4E) of the same sequence?
Its value is “No significant changes in the Tm shift”.

What about the “CETSA actin Tm” value (actin) of the same sequence?
The value was 55 °C.

From PMC5384220 (Nature Communications, 2017)
